Literature values as cited in patent publication US20250120913A1, “STABLE QUERCETIN NANOSUSPENSIONS” (Sirona Biosciences Inc., priority 2023, published 2025).

Conditions: depending on the pH level

aqueous solubility: 1.5 to 12.5 µg/mL
SMILES: O=c1c(O)c(-c2ccc(O)c(O)c2)oc2cc(O)cc(O)c12 [Quercetin]
